Experimental data taken from patent US20080249317A1 (APOTEX INC., priority 2007, published 2008).
Counter-ions that a name gives are not always drawn.

Assays:
[1] = acidic medium such as gastric fluid; background statement; cited from earlier work
[2] = Dissolution of 1 gram of crystalline carvedilol phosphate in methanol; type: physicochemical
Text: The improved solubility by the addition of acetic acid is exemplified by the following results.

Compound | solubility [1] | methanol in which a solution was formed ([2]; containing 2% acetic acid (w/w relative to the carvedilol), solution formed rapidly) [mL] | methanol required for dissolution ([2]; in the absence of acetic acid)
COc1ccccc1OCCNCC(O)COc1cccc2[nH]c3ccccc3c12 (stereo not drawn) [hydrochloride salt, 1,1-(9H-Carbazol-4-yloxy)-3-[[2-(2-methoxyphenoxy)ethyl]amino]-2-propanol] | reduced solubility | – | –
carvedilol phosphate [crystalline carvedilol phosphate] | – | 3 | about 100 mL
